Measurements as given in US20180078615A1, “USE OF CCL2 TO INHIBIT ABNORMAL UTERINE BLEEDING” (UNIVERSITY OF SOUTH FLORIDA, priority 2015, published 2018).

Experiments:
Assay type in all cases: cell-based, human
VSMCs [1] = experiment: VSMC proliferation assay by BrdU incorporation; conditions: 10^−7 M, 48-h treatment, mean±SEM; control 0.81±0.03
Procedure: VSMCs were grown in 96-well plates or 8-well chamber slides and incubated with 10^−7 M of MPA (Sigma-Aldrich) or ETO (Organon) or P4 (Sigma-Aldrich) or vehicle±rCCL2 (R&D Systems)±STAT1 inhibitor, 5′-methyl-thioadenosine (MTA; EMD Millipore) (19) for 48 or 72 h. VSMCs were then analyzed for apoptosis by an ELISA based apoptosis kit (Roche) or cleaved-caspase 3 immunostaining. VSMC proliferation was measured by BrdU incorporation Kit (Cell Signaling). (See further details in SI Materials and Methods).
VSMCs were thawed and cultured in T-75 cell culture flasks in medium 231 (M231; Life Technologies) with smooth muscle growth supplement (5% FBS; 2 ng/mL human basic fibroblast growth factor, 0.5 ng/mL human epidermal growth factor, 5 ng/mL heparin, 0.2 μg/mL insulin and 5 μg/mL BSA; Life Technologies) with 100 U/mL penicillin, 100 μg/mL streptomycin, and 0.25 μg/mL fungizone. Confluent VSMCs were washed twice with 1×PBS to remove residual serum, and then passaged (5,000 cells per well) in 96-well plates and incubated in parallel in M231 with 1% charcoal striped FBS with 0.1% ethanol (vehicle, control), 10^−7 M MPA (Sigma-Aldrich), 10^−7 M ETO (Organon), or 10^−7 M P4 (Sigma-Aldrich)±rCCL2 (monocyte chemotactic protein-1; R&D Systems)±STAT1 inhibitor, 5′-methyl-thioadenosine (MTA; EMD Millipore) for 48 or 72 h.
BrdU (Cell Signaling) 1× in 100-μL M231 was added to each well during the final 24 h of incubation. At the end of 48- or 72-h incubation period, medium was removed and the wells washed twice with ice-cold PBS. VSMC proliferation was measured using BrdU cell proliferation Kit (Cell Signaling) at room temperature. Cells was incubated in 100 μL per well of the fixing/denaturing solution for 30 min, and then replaced by 100 μL per well BrdU detection antibody solution for 1 h. Following three rinses with wash buffer, plates were incubated in HRP-conjugated secondary antibody (100 μL per well) for 30 min. After three additional rinses with wash buffer, tetramethylbenzidine substrate solution (100 μL per well) was added for 20 min and the reaction stopped by adding 100 μL per well STOP solution. Absorbance was measured at 450 nm using Spectra Max190 microplate reader (Molecular Devices) to detect BrdU incorporation in each well.

VSMCs [2] = experiment: Whole genome microarray analysis (Illumina HumanHT-12 v4) of cultured VSMCs treated with progestins; conditions: VSMCs treated by MPA
Text: Cultured VSMCs (n=3) treated with control medium or medium containing medroxyprogesterone acetate (MPA, 10^−7 M), or etonogestrel (ETO, 10^−7 M) were processed for whole genome analyses using Illumina Human microarray kit. After qRT-PCR confirmation of several up and down regulated genes from microarray data, Ingenuity Pathway Analysis (IPA) determined relevant upstream signaling of LAPC altered gene expression. To investigate the role of genes and relevant signaling molecules identified by IPA, VSMCs (n=3) treated with MPA or ETO±1 or 10 ng/ml recombinant CCL2 (rCCL2)±STAT1 inhibitor, 5′-methyl-thioadenosine (MTA, 100 μM) were analyzed by BrdU incorporation proliferation, TUNEL based ELISA apoptosis and Transwell insert migration assays.
(§1) VSMCs were thawed and cultured in medium 231 (M231; Life Technologies) with smooth muscle growth supplement (5% FBS; 2 ng/mL human basic fibroblast growth factor, 0.5 ng/mL human epidermal growth factor, 5 ng/mL heparin, 0.2 μg/mL insulin and 5 μg/mL BSA; Life Technologies) with 100 U/mL penicillin, 100 μg/mL streptomycin, 0.25 μg/mL fungizone. Confluent VSMCs were washed twice with 1×PBS to remove residual serum, passaged in 96-well or 6-well plates and incubated in parallel in M231 with 1% charcoal striped FBS with 0.1% ethanol (vehicle, control) or 10^−7 M MPA (Sigma-Aldrich) or 10^−7 M ETO (Organon) or 10^−7 M P4 (Sigma-Aldrich) for 15 min, 6, 48, and 72 h. VSMCs were then washed with ice-cold PBS and stored at −80° C. for further RNA and protein analyses.
Total RNA was isolated using Qiagen miRNeasy Mini Kit (Qiagen) and RNeasy MinElute Cleanup Kit (Qiagen). The quality of isolated RNAs was confirmed using an Agilent 2100 Bioanalyzer. Microarray analysis was limited to those specimens in which RNA Integrity Number exceeded 8. Microarray processes were performed in the Keck Biotechnology Resource Laboratory at Yale University (New Haven, Conn.) using Illumina Human HT-12 v4 BeadChip (Illumina). Raw data without normalization were analyzed by GeneSpring GX12.5 software (Agilent Technologies-Silicon Genetics). Normalization was performed as described (35). Genes with a fold-change >1.25 and a P value<0.05 were considered differentially expressed. Ingenuity Pathway Analysis (IPA) software (Qiagen) explored molecular and biological networks related to differentially expressed genes.

STAT1 = experiment: Western blot of total and phosphorylated STAT1 in VSMCs; conditions: VSMCs treated for 15 min, vs control
Procedure: as §1
To confirm inhibition of STAT1 signaling in LAPC-treated VSMCs, detected by IPA, cell lysates from VSMCs were run in 10% Tris-HCl gel (Bio-Rad). Transfer onto membrane, blocking, washing, chemiluminescence development, and stripping/reprobing were performed as described previously (35). The membrane was incubated with antitotal STAT1 or antiphospho-STAT1 rabbit monoclonal antibodies (Cell Signaling) and then with peroxidase-conjugated goat anti-rabbit IgG (Vector Labs). Signals were developed by a chemiluminescence kit (GE Healthcare).

CC(=O)O[C@]1(C(C)=O)CC[C@H]2[C@@H]3C[C@H](C)C4=CC(=O)CC[C@]4(C)[C@H]3CC[C@@]21C [MPA, medroxyprogesterone acetate] was tested, and the BrdU incorporation (VSMCs [1]) was 0.31±0.02, the “Fold-change, ABI gene family, member 3 (NESH) binding protein (ABI3BP)” value (VSMCs [2]) was −2.045 and the “Fold-change, Actin, γ 2, smooth muscle, enteric (ACTG2)” value (VSMCs [2]) was 2.761. For the same compound, the “Fold-change, Alcohol dehydrogenase 1A (class I), α polypeptide (ADH1A)” value (VSMCs [2]) was 2.49, the “Fold-change, Bradykinin receptor B1 (BDKRB1)” value (VSMCs [2]) was −2.041 and the “Fold-change, Chemokine (C-C motif) ligand 2 (CCL2)” value (VSMCs [2]) was −4.123. For the same compound, the “Fold-change, Collectin subfamily member 12 (COLEC12)” value (VSMCs [2]) was −2.177, the “Fold-change, Complement factor B (CFB)” value (VSMCs [2]) was −3.17 and the “Fold-change, Complement factor D (adipsin) (CFD)” value (VSMCs [2]) was 2.794. For the same compound, the “Fold-change, Cysteine-rich secretory protein LCCL domain containing 2, (CRISPLD2)” value (VSMCs [2]) was 3.721, the “Fold-change, DNA-damage regulated autophagy modulator 1 (DRAM1)” value (VSMCs [2]) was −2.149 and the “Fold-change, Decorin, transcript variant A2 (DiCN)” value (VSMCs [2]) was 2.515. The “Fold-change, EF-hand domain family, member D1 (EFHD1)” value (VSMCs [2]) was 2.294, the “Fold-change, Fibrillin 2 (FBN2)” value (VSMCs [2]) was 2.642 and the “Fold-change, Filaggrin (FLG)” value (VSMCs [2]) was −2.306. The “Fold-change, Glutathione peroxidase 3 (plasma) (GPX3)” value (VSMCs [2]) was 2.827, the “Fold-change, H19, imprinted maternally expressed transcript noncoding RNA (H19)” value (VSMCs [2]) was 5.441 and the “Fold-change, Hypothetical protein FLJ40504 (FLJ40504)” value (VSMCs [2]) was −2.331. For the same compound, the “Fold-change, Indolethylamine N-methyltransferase (INMT)” value (VSMCs [2]) was 2.187, the “Fold-change, Insulin-like growth factor binding protein 2, 36 kDa (IGFBP2)” value (VSMCs [2]) was 2.367 and the “Fold-change, Interleukin 1, β (IL1B)” value (VSMCs [2]) was −2.325. For the same compound, the “Fold-change, LY6/PLAUR domain containing 1, transcript variant 1 (LYPD1)” value (VSMCs [2]) was −2.21, the “Fold-change, Latexin (LXN)” value (VSMCs [2]) was −2.939 and the “Fold-change, Leptin (obesity homolog, mouse) (LEP)” value (VSMCs [2]) was 4.042. For the same compound, the “Fold-change, Matrix Gla protein, transcript variant 1 (MGP)” value (VSMCs [2]) was 3.615, the “Fold-change, Matrix Gla protein, transcript variant 2 (MGP)” value (VSMCs [2]) was 3.221 and the “Fold-change, Natriuretic peptide precursor B (NPPB)” value (VSMCs [2]) was −2.371. The “Fold-change, PREDICTED: keratin 18 pseudogene 13 (KRT18P13)” value (VSMCs [2]) was −2.209, the “Fold-change, PREDICTED: similar to LYPDC1 protein (LOC100134073)” value (VSMCs [2]) was −2.401 and the “Fold-change, Pleckstrin homology-like domain, family A, member 1 (PHLDA1)” value (VSMCs [2]) was −2.17. For the same compound, the “Fold-change, Potassium voltage-gated channel, shaker-related subfamily, 0 member 1, transcript variant2 (KCNAB1)” value (VSMCs [2]) was −2.055, the “Fold-change, Prostaglandin-endoperoxide synthase 1, transcript variant 2 (PTGS1)” value (VSMCs [2]) was 2.437 and the “Fold-change, Retinoic acid receptor responder (tazarotene induced) 1, transcript variant 1, (RARRES1)” value (VSMCs [2]) was −4.061. The “Fold-change, Retinoic acid receptor responder (tazarotene induced) 1, transcript variant 2, (RARRES1)” value (VSMCs [2]) was −2.994, the “Fold-change, Superoxide dismutase 2, mitochondrial, transcript variant 2, (SOD2)” value (VSMCs [2]) was −2.208 and the “Fold-change, Sushi domain containing 2 (SUSD2)” value (VSMCs [2]) was 2.901. For the same compound, the “Fold-change, Transmembrane protein 119 (TMEM119)” value (VSMCs [2]) was 2.258, the “Fold-change, UDP-N-acetyl-alpha-D-galactosamine:polypeptide N-acetylgalactosaminyltransferase 12 (GALNT12)” value (VSMCs [2]) was −2 and the “Fold-change, Wingless-type MMTV integration site family, member 5A (WNT5A)” value (VSMCs [2]) was 2.218. For the same compound, the “Fold-change, Collagen, type VIII, α 1, transcript variant 2 (COL8A1)” value (VSMCs [2]; table entry 11) was 2.628, the “Fold-change, Collagen, type VIII, alpha 1, transcript variant 2 (COL8A1)” value (VSMCs [2]; table entry 14) was 2.439 and the “phosphorylated levels of STAT1” value (STAT1) was “partially reduced”. For the same compound, the “total STAT1 levels” value (STAT1) was “not”.
